The record followed here is patent US20030206914A1, “Synthetic antigens for CD1-restricted immune responses” (priority 1997, published 2003).

Assay [1] deals with CD8-1 T cell line (CD1c-restricted αβ). Description: CD8-1 T cell line response. It is filed as cell-based, human.
A further assay has as its target CD1b (Homo sapiens, UniProt P29016). Description: Binding of glycolipid to CD1b. The source says: Thus, CD1b binds to both natural and synthetic GMM but not to an analog that has only one long alkyl chain instead of two short alkyl chains.
Assay [2] has as its system LDN5 T cell line (CD1b-restricted). It is filed as cell-based, human.
Assay [3] deals with CD1b transfected C1R lymphoblastoid target cells. The assay can be described thus: LDN5 cytolysis assay, CD1b transfected targets. The format is cell-based, human. Particulars: E:T 25:1; targets cultured with antigen (0.5 mg/ml purified glycolipid; 5 μg/ml synthetic GMM). From the text: (§1) There was no response in the absence of antigen.
(§2) Similarly treated mock, CD1a or CD1c transfected cells were not lysed (FIG. 2B). The Na adduct of the fully synthetic GMM containing C32 mycolic acid was detected by ESI-MS analysis to be a single ion peak at m/z 681.6 (FIG. 2C). This synthetic GMM antigen lacks long chain length (compared with C80 mycolic acids of mycobacteria), cyclopropanation, double bonds and R groups, ruling out all of these natural chemical variations of the mycolic acid moiety as necessary antigenic determinants. The discovery of a synthetic CD1-restricted antigen with a simple and well defined structure allowed the systematic study of individual molecular features of the antigen that determined the specificity of the T cell response.
(§3) LDN5 was derived from the same human leprosy skin lesion that gave rise to the previously described LAM reactive T cell line LDN4 (P. A. Sieling, et al. (1995) Science 269:227). Cultures were stimulated initially with autologous GM-CSF and IL-4 treated CD1^+ monocytes and M. leprae sonicate. After establishment of LDN5, cultures were maintained in IL-2 supplemented medium and periodically stimulated with allogenic CD1^+ APCs and M. phlei sonicate (X/1000) containing GMM. […] T cell culture methods, proliferation assays and cytolysis assays were carried out according to the methods described in E. M. Beckman, et al. (1996) J. Immunol. […]

The test system of assay [4] is mock, CD1a or CD1c transfected C1R cells. The assay can be described thus: LDN5 cytolysis assay, control transfectants. The format is cell-based, human. Particulars: E:T 25:1; similarly treated with antigen.
Text: as §1, §2, §3

The subject of assay [5] is DN1 T cell line (CD1b-restricted, specific for free mycolic acid). Description: DN1 T cell line response. It is filed as cell-based, human. From the text:
The role of the carbohydrate moiety of the glycolipid in T cell recognition was separately evaluated.
LDN5 was derived from the same human leprosy skin lesion that gave rise to the previously described LAM reactive T cell line LDN4 (P. A. Sieling, et al. (1995) Science 269:227). Cultures were stimulated initially with autologous GM-CSF and IL-4 treated CD1^+ monocytes and M. leprae sonicate. After establishment of LDN5, cultures were maintained in IL-2 supplemented medium and periodically stimulated with allogenic CD1^+ APCs and M. phlei sonicate (X/1000) containing GMM. […] T cell culture methods, proliferation assays and cytolysis assays were carried out according to the methods described in E. M. Beckman, et al. (1996) J. Immunol. 157:2795. All bioassays were done in triplicate and reported as mean +/−standard deviation.

Another assay relates to APCs. Description: Uptake and processing of CD1b-presented antigens by APCs. It is filed as cell-based. From the text: The uptake and processing pathway for CD1b-presented antigens was also defined. Several steps in the presentation of two related classes of CD1b-presented antigens, free and glycosylated mycolates, were examined. […] Thus, larger lipids, such as trehalose dimycolate cannot be broken down into GMM within cells. Given that the hydrophobic groove can accommodate approximately 32 CH2 units when measured in crystalline form, it is likely that the CD1 protein can open to encompass larger alkyl chains or that the chains can protrude from the groove.

Assay [6] deals with 14 other T cell lines including SP-F3 and DN6.
Assay [7] relates to CD1c-restricted T cell lines. Description: Recognition by other CD1c-restricted T cell lines from different donors. Particulars: lines derived from different donors. It is filed as cell-based, human. From the text:
Based on a survey of known mycobacterial phospholipids, the leading candidate structure for this antigen was that of a glycosyl phosphopolyprenol (GPP). See, Besra, G. S., et al. (1994) Proc. Natl. Acad. Sci. USA 91:12735-12739. The fragmentation pattern was consistent with the identification of the antigenic M. avium as a GPP, presuming that the lipid of m/z 420 was the hexaprenyl component of a fully saturated hexose phosphohexaprenol. To assess this, the ability of the T cell line CD8-1 to recognize purified mycobacterial GPPs was tested. The structure of Myc-PL, a mannosyl phosphopolyprenol esterified to a mycolic acid, had been determined in detail. Besra, G. S., et al. (1994) supra. Pure myc-PL was cleaved with strong base to yield free mycolate and mannosyl phosphoheptaprenol (MPP). Besra, G. S., et al. (1994) supra. […] Rush, J. S., et al.(1993) J. Biol. Chem. 268:13110-13117. […] Thus, these studies established that CD1c-restricted T cells specifically recognized GPPs from four different sources, including both natural and synthetic analogs of this structure.
All three CD1-restricted lines preferentially recognized the α-saturated MPDs typical of eukaryotes more potently than the α-unsaturated GPPs typical of prokaryotes. Krag, S. S. (1998) Biochem. Biophys. Res. Comm. 243:1-5. […]

For assay [8], the system named is CD1a, CD1b and MHC class I restricted T cell lines. Description: Stimulation of CD1a, CD1b and MHC class I restricted T cell lines (mitogenicity control). It is filed as cell-based.
The mark [9] stands for this setting: cytokine activated macrophages / CD1+ APCs.

Entries after “also recorded” stand apart in the source; their conditions may differ. Where two headings read alike, the source gives them in different places.

Sequence of CD1b (P61769 21-119): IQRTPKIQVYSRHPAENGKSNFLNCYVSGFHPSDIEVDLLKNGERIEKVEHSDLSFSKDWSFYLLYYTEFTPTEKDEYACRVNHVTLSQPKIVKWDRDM
Sequence of CD1b (P29016 18-303): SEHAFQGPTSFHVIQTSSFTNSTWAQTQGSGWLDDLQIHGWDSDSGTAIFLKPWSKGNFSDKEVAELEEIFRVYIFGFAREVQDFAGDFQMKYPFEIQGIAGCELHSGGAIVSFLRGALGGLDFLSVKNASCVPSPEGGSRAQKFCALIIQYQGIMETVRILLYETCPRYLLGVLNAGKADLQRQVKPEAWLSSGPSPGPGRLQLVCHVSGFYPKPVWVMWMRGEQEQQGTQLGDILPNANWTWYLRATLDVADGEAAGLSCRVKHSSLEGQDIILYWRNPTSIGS

Consider `CC(C)=CCCC(C)=CCCC(C)=CCCC(C)=CCCC(C)=CCCC(C)=CCCC(C)=CCOP(=O)(O)O[C@@H]1O[C@H](CO)[C@@H](O)[C@H](O)[C@@H]1O` (relative stereo) [semi-synthetic MPP, β-D-mannopyranosyl-1-monophosphoryl-(poly-cis, di-trans, α-unsaturated) heptaprenol], for which the “CD8-1 response to antigen” value in [1] is reported as “responded significantly”. Regarding `CC(C)=CCCC(C)=CCCC(C)=CCCC(C)=CCCC(C)=CCCC(C)=CCCC(C)=CCCC(C)=CCCC(C)=CCCC(C)=CCCC(C)=CCCC(C)=CCCC(C)=CCCC(C)=CCCC(C)=CCCC(C)=CCCC(C)=CCCC(C)=CCCC(C)CCOP(=O)(O)O[C@@H]1O[C@H](CO)[C@@H](O)[C@H](O)[C@@H]1O` (relative stereo) [β-D-mannopyranosyl-1-monophosphoryl-(poly-cis, di-trans, α-saturated) nondecaprenol], in [1], the “CD8-1 response to antigen” value is recorded as “responded significantly”. As to `CCCCCCCCCCCCCCCCCCCCCCCCCCCCCC(=O)OC[C@H]1OC(O)[C@H](O)[C@@H](O)[C@@H]1O` (stereo partly drawn) [G6T, Glucose-6-o-triacontanoate], the “binding to CD1b” value on CD1b (pH not given) is “did not bind to CD1b”. On to `CCCCCCCCCCCCCC(O)CC(=O)OC[C@@H](O)[C@@H](O)[C@H](O)[C@@H](O)C=O` (stereo partly drawn) [glucose 6-O-3-hydroxypalmitate], for which the “LDN5 proliferative response to antigen” value in assay [2] (setting [9]) is reported as “did not respond”. In the case of galactose monomycolate, the “LDN5 proliferative response to antigen” value in [2] is recorded as “responded very weakly or not at all”. Consider glucose monomycolate [GMM], for which the “LDN5 proliferative response to antigen” value in [2] was “stimulated LDN5; also recorded: proliferated at similar doses”. The “lysis of CD1b transfected C1R target cells by LDN5” value in [3] is reported as “lysed CD1b transfected C1R lymphoblastoid target cells”. Moreover, the “lysis of mock, CD1a or CD1c transfectants by LDN5” value in assay [4] is “not similarly treated mock, CD1a or CD1c transfectants”. For the same compound, the “DN1 response to antigen” value in assay [5] is “not to GMM”. Besides, on CD1b (pH 4.0), the “binding to CD1b at pH 4.0” value is given as “occurring at pH 4.0”. Also, the “binding to CD1b at pH 7.0” value on CD1b (pH 7.0) is “not at pH 7.0”. For the same compound, in the assay with APCs, the “T cell recognition after treating APCs with fixing or endosome pH neutralizing agents” value is “blocked by agents that fix APC membranes or neutralized the pH of endosomes” and the “rate of uptake by APCs” value is recorded as “taken up by APCs at the same rate”. For the same compound, in [6], the “proliferative response of other T cell lines” value is listed as “not 14 other T cell lines tested”. For the compound mannose monomycolate, the “LDN5 proliferative response to antigen” value in assay [2] is “responded very weakly or not at all”. For mannosyl phosphodolichol [MPD], the “CD8-1 response to antigen” value in assay [1] is “recognized the 2,3 dihydro analog, mannosyl phosphodolichol (MPD), at much lower concentration”. Moreover, in assay [7], the “recognition by two other CD1c-restricted T cell lines” value was “recognized MPD”. In assay [8], the “stimulation of CD1a, CD1b and MHC class I restricted T cell lines” value is recorded as “did not stimulate”. Regarding mannosyl phosphoheptaprenol [MPP], the “CD8-1 response to antigen” value in assay [1] is on record as “did respond to the pure MPP”.

In the case of “trehalose dimycolate [TDM, reference compound]”, the “cleavage by APCs to antigenic free mycolates or GMM” value in the assay with APCs is listed as “unable to cleave”.

With “α,α trehalose dimycolate [purified cord factors from M. phlei, reference compound]”, in [2] (setting [9]), the “LDN5 proliferative response to antigen” value was “not antigenic for LDN5”.
